Results on three compounds are retold here after PMC9586926, “An efflux-susceptible antibiotic-adjuvant with systemic efficacy against mouse infections” (Scientific Reports, 2022).

Values after ≈ are worked out from the molar mass of the structure shown. Read-outs that look alike come from different tables or passages of the source. Where a SMILES comes first, the peptide text is derived from it. [ ]: non-standard residue; d: D form. The star is where a group is joined. 12Ado = NCCCCCCCCCCCC(=O)O; Decanoyl = CCCCCCCCCC(=O)*; Orn = NCCC[C@H](N)C(=O)O Where only a bound is given, the exact number is not on record here.

On the set-up of series [1]: method as in PMID 28329302. The following applies: 40 mg/kg dose; cited from earlier work.
In the next series the test system is RAW 264.7. The series is described as follows: Cytotoxicity, Alamar blue. The class given is cell-based, murine. The following applies: 24 h incubation, read-out: IC50 RAW 264.7 (50% inhibition of cells respiration). The protocol:
(§1) Cell lines used in this study included murine RAW 264.7 macrophages and human embryonic kidney HEK-293FT cells (ATCC, Biological Industries, Beit Haemek, Israel). Cells were grown in Dulbecco’s modified eagle medium (DMEM) containing […] glucose, L-glutamine, sodium bicarbonate and sodium pyruvate, supplemented with 10% fetal bovine serum and pen-strep, at 37 °C and 5% CO2.
(§2) Lipopeptides cytotoxicity was determined using fluorescent measurements of reduced resazurin. 2 × 10^4 cells were first cultured in 96-well plates over-night (final volume of 100 µl) at 37 °C and 5% CO2. Then, the medium was removed and cells were incubated for an additional 24 h with serial twofold dilutions of the lipopeptides in growth medium. Then, 10 µl of Alamar blue were added and plates were incubated for 3 h, after which fluorescence (excitation: 530 nm; emission: 590 nm) of the reduced resazurin was recorded (BioTek Instruments Synergy HT; Winooski, VT, USA).

The next series has as its system E. coli. The series is described as follows: MIC, broth microdilution. It counts as cell-based, Escherichia coli. The following applies: broth microdilution in LB, 18–24 h, 37 °C; n = 4 strains; published data in bold (not discernible). The text has this: (§3) Bacteria used in this study consisted of standard American Type Culture Collection (ATCC; Biological Industries, Beit Haemek, Israel) strains, clinically isolated (CI; Sourasky Medical Center, Tel Aviv, Israel) strains, as well as isogenic mutant strains. Gram-negative bacteria included Acinetobacter baumannii ATCC 19606; Escherichia coli ATCC 25922, 35218, CFT073, CI 14384, 16327, and the isogenic pair Ag100 (wild-type) and its efflux deficient mutant Ag100a (ΔacrAB); Klebsiella pneumoniae CI 1287, 224; Pseudomonas aeruginosa ATCC 27853, CI 1278, 8634; Salmonella enterica serovar Typhimurium ATCC 14028 (wild-type) and its isogenic efflux deficient mutant ΔacrAB. Bacteria were grown in Luria–Bertani broth (LB; 5 g/l NaCl, 5 g/l yeast extract, 10 g/l tryptone; pH = 7.0) at 37 °C with shaking. Over-night cultures were diluted 10-folds into fresh growth-medium and incubated at 37 °C with shaking until reaching mid-logarithmic phase. Then, bacterial concentrations were adjusted using O.D.600 nm measurements, and bacteria were subjected to the experimental procedures listed herein.
(§4) MIC was determined according to the broth microdilution method: antimicrobials were subjected to serial twofold dilutions in LB medium, and incubated with 5 × 10^5 CFU/ml of bacteria (final volume of 200 µl) for 18–24 h at 37 °C. Then, O.D.620 nm was measured (BioTek Instruments Synergy HT; Winooski, VT, USA), and the MIC was defined as the lowest antimicrobial concentration for which no increase in O.D.620 nm was evident, compared to the untreated control.
(In general: Broth dilution looks for growth in wells or tubes with falling amounts of substance.)

Series [2] relates to S. Typhimurium 14028ΔAcrAB. The following applies: cited from earlier work. The source says: Table 2 Effect of RND pumps on growth-inhibitory activity. | column: MIC^a (µM) in LB / S. Typhimurium / Mutant
For the next series, the system named is K. pneumoniae. The series is described as follows: MIC, broth microdilution. It counts as cell-based, Klebsiella pneumoniae. The note with it: broth microdilution in LB, 18–24 h, 37 °C; n = 2 strains.
Text: as §3, §4

For a further series, the system named is murine RBC. The series is described as follows: Hemolysis. It counts as cell-based. The following applies: 1% hematocrit murine RBC, 3 h, 37 °C. The protocol: Permeabilization of red blood cells (RBC) was evaluated using absorbance measurements of extracellular hemoglobin. Serial twofold dilutions of lipopeptides were incubated with 1% hematocrit of murine RBC for 3 h at 37 °C with shaking. Samples were then centrifuged at 20,000 RCF for 5 min, and absorbance of the supernatants was measured at 450 nm (BioTek Instruments Synergy HT; Winooski, VT, USA). Percent hemolysis was then calculated by (AS − AN)/(AP − AN) × 100; where AS, AN, and AP represent the absorbance of the sample, negative control (PBS) and positive control (Milli-Q water), respectively. LC50 values were extracted from trend-lines generated for linear-regions of plots correlating lipopeptide concentrations and percent hemolysis.

For the next series, the system named is P. aeruginosa. The series is described as follows: MIC, broth microdilution. It counts as cell-based, Pseudomonas aeruginosa. The following applies: broth microdilution in LB, 18–24 h, 37 °C; n = 3 strains.
Text: as §3, §4

The test system of series [3] is E. coli Ag100a (ΔacrAB). The note with it: cited from earlier work. The text has this: Table 2 Effect of RND pumps on growth-inhibitory activity. | column: MIC^a (µM) in LB / E. coli / Mutant
The next series concerns A. baumannii. The series is described as follows: MIC, broth microdilution. It counts as cell-based, Acinetobacter baumannii. The note with it: broth microdilution in LB, 18–24 h, 37 °C; n = 1 strain.
Text: as §3, §4

In series [4] the test system is E. coli Ag100 (wild-type). The note with it: cited from earlier work. The source says:
Table 2 Effect of RND pumps on growth-inhibitory activity. | column: MIC^a (µM) in LB / E. coli / Wild-Type

In series [5] the test system is E. coli 25922. The following applies: same assessment tools; cited from earlier work. The source says: To our knowledge, the finding of an adjuvant whose activity is enhanced—rather than repressed—after efflux, is hitherto unreported. One might ask, at this point: If the K-, O and B-based analogs are efflux substrates (as implied by MIC data, Table 2), how come only C10BBc12B is positively affected by efflux?

The test system of a further series is HEK-293FT. The series is described as follows: Cytotoxicity, Alamar blue. The class given is cell-based, human. The note with it: 24 h incubation, read-out: IC50 HEK-293FT (50% inhibition of cells respiration). The protocol:
as §1, §2

Series [6] concerns S. Typhimurium 14028 (wild-type). The note with it: cited from earlier work. The source says: Table 2 Effect of RND pumps on growth-inhibitory activity. | column: MIC^a (µM) in LB / S. Typhimurium / Wild-Type
For series [7] the test system is unchanged. Nature of the series: MIC, broth microdilution, wild-type strain. It counts as cell-based, Salmonella enterica serovar Typhimurium.
Text: as §3
(§5) MIC was determined according to the broth microdilution method: antimicrobials were subjected to serial twofold dilutions in LB medium, and incubated with 5 × 10^5 CFU/ml of bacteria (final volume of 200 µl) for 18–24 h at 37 °C. […]

Series [8] relates to E. coli Ag100 (wild-type). Nature of the series: MIC, broth microdilution, wild-type strain. The class given is cell-based, Escherichia coli.
Text: as §3, §5

Series [9] concerns E. coli Ag100a (ΔacrAB). The series is described as follows: MIC, broth microdilution, efflux deficient mutant. It counts as cell-based, Escherichia coli. The following applies: Ag100a.
Text: as §3, §5

The test system of series [10] is E. coli 25922. The series is described as follows: Cytoplasmic membrane depolarization, DiSC3(5) fluorescence. The class given is cell-based, Escherichia coli. The following applies: C10BBc12B up to 10 µM; PMB 2.5 µM. The protocol:
Lipopeptides aptitude to depolarize the CM was evaluated using fluorescent measurements of the transmembrane potential sensitive dye 3,3′-Dipropylthiadicarbocyanine iodide (DiSC3(5))[69]. Bacteria (O.D.600 nm = 0.1) were washed by centrifugation at 10,000 RCF for 5 min, supernatant aspiration, and pellet resuspension in 5 mM HEPES containing 20 mM glucose, 50 mM KCl and 0.2 mM EDTA (pH = 7.2). This suspension was mixed with DiSC3(5) (400 µM in DMSO) to reach a final DiSC3(5) concentration of 4 µM and was incubated in the dark for 1 h at 37 °C with shaking. Then, 180 µl of this mixture were dispensed into black microtiter plates and fluorescence was recorded (excitation: 622 nm; emission: 670 nm) at 37 °C with shaking until baseline stabilization (BioTek Instruments Synergy HT; Winooski, VT, USA). Finally, 20 µl of HEPES containing serial twofold dilutions of lipopeptides were added and fluorescence was recorded for up to 30 min at the same conditions.

Series [11] relates to S. Typhimurium 14028ΔAcrAB. The series is described as follows: MIC, broth microdilution, efflux deficient mutant. The class given is cell-based, Salmonella enterica serovar Typhimurium.
Text: as §3, §5

Series [12] concerns E. coli 25922. The series is described as follows: Outer membrane permeabilization, NPN fluorescence. It counts as cell-based, Escherichia coli. The protocol:
Lipopeptides ability to permeabilize the OM was evaluated using fluorescent measurements of N-phenyl-1-naphthylamine (NPN)[67]. 200 µl of an over-night culture were diluted into 10 ml of fresh LB medium and incubated at 37 °C with shaking until reaching O.D.600 nm = 0.5. The culture was then centrifuged at 10,000 RCF for 3 min, the supernatant aspirated, and the pellet resuspended in equal volume of 5 mM HEPES containing 5 mM glucose (pH = 7.2). This suspension was then mixed with NPN (5 mM in acetone) to reach a final NPN concentration of 10 µM. Then, 190 µl of this mixture were dispensed into black microtiter plates, mixed with 10 µl of HEPES containing serial twofold dilutions of lipopeptides and fluorescence (excitation: 360 nm; emission: 460 nm) was recorded immediately for up to 10 min at 37 °C with shaking[29] (BioTek Instruments Synergy HT; Winooski, VT, USA). In a modified version of this assay, in which efflux was inhibited, bacteria (similarly prepared) were incubated with the lipopeptides in presence or absence of 100 µM CCCP for 5 min. Samples were then twice centrifuged at 10,000 RCF for 3 min, the supernatant aspirated, and the pellet resuspended in equal volume of 5 mM HEPES containing 20 mM glucose (pH = 7.2), so as to re-energize the efflux machinery. NPN was then added (final concentration of 10 µM) and fluorescence was recorded immediately thereafter.

Series [13] concerns E. coli 25922. The note with it: ref 23 (C14(ɷ5)OOc10O), ref 41 (PMBN); cited from earlier work. The text has this: Towards better understanding the synergistic mechanism, we compared individual growth kinetics to determine contributions of each antimicrobial and assessed the type and extent of implicated membrane damages, assuming that low OM-permeability underlies the observed antibiotics inefficiencies by impeding their intracellular accumulation.

On to `CCCCCCCCCC(=O)N[C@@H](CCCN)C(=O)N[C@@H](CCCN)C(=O)NCCCCCCCCCCCC(=O)N[C@@H](CCCN)C(N)=O` [C10OOc12O] (Decanoyl-[Orn][Orn][12Ado][Orn]-NH2), for which the mortality result in series [1] was “mortality of another mouse was recorded within an hour”. Besides, the IC50 in the series on RAW 264.7 and with HEK-293FT was greater than 50 µM in each case. Further, the “MIC E. coli (n=4)” value in the series with E. coli was no less than 50 µM. For the same compound, the “MIC (µM) in LB, S. Typhimurium Mutant” value in series [2] is 6.2 µM (≈ 4.41 µg/mL). The “MIC K. pneumoniae (n=2)” value with K. pneumoniae was greater than 50 µM. For the same compound, the “LC50 Erythrocytes (50% hemolysis)” value with murine RBC is greater than 50 µM. For the same compound, in the series with P. aeruginosa, the “MIC P. aeruginosa (n=3)” value is greater than 50 µM. For the same compound, the “MIC (µM) in LB, E. coli Mutant” value in the series with E. coli Ag100a (ΔacrAB) [3] is on record as 6.2 µM (≈ 4.41 µg/mL). In addition, the “MIC A. baumannii (n=1)” value in the series on A. baumannii is greater than 50 µM. Also, the “MIC (µM) in LB, E. coli Wild-Type” value in [4] was greater than 50 µM. Besides, in the series on E. coli 25922 [5], the CM depolarization result is reported as “interact with the CM to the point of inducing its depolarization”. Moreover, the “MIC (µM) in LB, S. Typhimurium Wild-Type” value in series [6] is reported as greater than 50 µM.
Polymyxin B [reference compound]: in series [7], the “MIC (µM) in LB, S. Typhimurium Wild-Type” value came to 0.7 µM. For the same compound, the “MIC (µM) in LB, E. coli Wild-Type” value in series [8] stood at 0.7 µM. The “MIC (µM) in LB, E. coli Mutant” value in the series on E. coli Ag100a (ΔacrAB) [9] came to 0.7 µM. Also, in the series with E. coli 25922 [10], the “CM depolarization (trans-membrane potential)” value is recorded as “rapid CM-depolarization”. Also, the “MIC (µM) in LB, S. Typhimurium Mutant” value in series [11] is given as 0.7 µM. Besides, the “reduction of NPN fluorescence by 10 mM MgCl2” value with E. coli 25922 [12] is on record as “much less”.
Take polymyxin B nonapeptide [PMBN]: in the series with E. coli 25922 [13], the “effect of sub-inhibitory concentrations on bacterial growth in absence of antibiotics” value is “transiently inhibited bacterial growth”.
